Where “and” joins values, the source holds several entries; their conditions need not be identical. Equal values may be shown once.
Tested on: patients with RMS
Assay: TEMSO Phase III trial: safety and tolerability (adverse events, laboratory tests)
Details: for incidence of ALT increase (≧1×ULN) / incidence of ALT ≧3×ULN: laboratory; for proportion of patients with TEAEs potentially related to hypersensitivity/skin disorders: selected SMQs terms; for patients with increased ALT ≧3×ULN and total bilirubin ≧2×ULN: considered non drug-induced
[1] = 7 mg once daily oral, safety population (N = 368)
[2] = 14 mg once daily oral, safety population (N = 358)
[3] = teriflunomide treatment, occurred over the first 3 months, slightly more marked with 14 mg

Experimental: Following a screening phase of up to 4 weeks, eligible patients were randomized (1:1:1) to receive a once-daily oral dose of placebo or teriflunomide, 7 mg or 14 mg, for 108 weeks. Randomization was stratified by baseline EDSS score (≦3.5 and >3.5) and by trial site. Participants successfully completing the study were eligible to enter a long-term extension.
Safety was evaluated by the occurrence of adverse events reported by the patient or the investigator. Laboratory tests were performed during screening, at baseline, and then every 2 weeks for the first 24 weeks, then every 6 weeks until study completion. Physical and neurologic examinations were performed at Week 12 and then every 24 weeks. An abdominal ultrasound to assess pancreatic abnormalities was done prior to the study and then every 24 weeks.
Laboratory testing of liver function and complete blood cell count with differential were performed at baseline, then every 2 weeks for the first 24 weeks of treatment and every 6 weeks thereafter. Patients with any of the following adverse events were discontinued from the study and were subsequently followed-up: • Any confirmed increase (repeated value within 48 hours) in alanine aminotransferase (≧3×ULN) with or without increase in total bilirubin level • Any occurrence of confirmed neutrophil count less than 1.0×10^9 cells/L with or without infection • Any potentially life-threatening cytopenias detected during the follow-up of laboratory abnormalities as per the investigator's judgment
Laboratory testing of pancreatic enzymes was performed at baseline, then every 2 weeks for the first 24 weeks of treatment and every 6 weeks thereafter. An abdominal ultrasound was performed at baseline and then every 24 weeks until study completion. Any suspected abnormal ultrasound was followed up with a CT scan with contrast, or by MRI.
Serum pregnancy testing was performed at baseline, Week 10, Week 24 and then every 12 weeks thereafter. If the pregnancy test was positive, the study medication was discontinued, and the physician was required to inform the patient of the risk of pregnancy and to discuss the potential alternatives. If the patient decided to continue with their pregnancy, a washout was required. If the patient decided not to continue with their pregnancy, the study medication could be resumed 2 weeks after termination of the pregnancy.

C/C(O)=C(\C#N)C(=O)Nc1ccc(C(F)(F)F)cc1 [teriflunomide, (Z)-2-cyano-3-hydroxy-but-2-enoic acid-(4′-trifluoromethylphenyl)-amide]
Serious adverse event, Blood disorders: Anemia (7 mg (N = 368)): 1 (0.3%) n (%)
Serious adverse event, Blood disorders: Neutropenia (7 mg (N = 368)): 0 n (%)
Serious adverse event, Blood disorders: Neutrophil count decreased (7 mg (N = 368)): 0 n (%)
Serious adverse event, Hepatic and hepatobiliary disorders: Alanine aminotransferase increased (7 mg (N = 368)): 5 (1.4%) n (%)
Serious adverse event, Hepatic and hepatobiliary disorders: Hepatic enzyme increased (7 mg (N = 368)): 0 n (%)
Serious adverse event, Hepatic and hepatobiliary disorders: Hepatitis toxic (7 mg (N = 368)): 0 n (%)
Serious adverse event, Hepatic and hepatobiliary disorders: Liver injury (7 mg (N = 368)): 1 (0.3%) n (%)
Serious adverse event, Hepatic and hepatobiliary disorders: Transaminases increased (7 mg (N = 368)): 1 (0.3%) n (%)
Serious adverse event, Infections: Appendicitis (7 mg (N = 368)): 2 (0.5%) n (%)
Serious adverse event, Infections: Bacteremia (7 mg (N = 368)): 0 n (%)
Serious adverse event, Infections: Cellulitis (7 mg (N = 368)): 0 n (%)
Serious adverse event, Infections: Cytomegalovirus hepatitis (7 mg (N = 368)): 0 n (%)
Serious adverse event, Infections: Erysipelas (7 mg (N = 368)): 1 (0.3%) n (%)
Serious adverse event, Infections: Gastroenteritis (7 mg (N = 368)): 0 n (%)
Serious adverse event, Infections: Hepatitis C (7 mg (N = 368)): 0 n (%)
Serious adverse event, Infections: Herpes zoster (7 mg (N = 368)): 0 n (%)
Serious adverse event, Infections: Infected cyst (7 mg (N = 368)): 1 (0.3%) n (%)
Serious adverse event, Infections: Lung infection (7 mg (N = 368)): 0 n (%)
Serious adverse event, Infections: Pneumonia (7 mg (N = 368)): 2 (0.5%) n (%)
Serious adverse event, Infections: Pyelonephritis (7 mg (N = 368)): 0 n (%)
Serious adverse event, Infections: Renal abscess (7 mg (N = 368)): 0 n (%)
Serious adverse event, Infections: Urinary tract infection (7 mg (N = 368)): 0 n (%)
Serious adverse event, Infections: Urinary tract infection enterococcal (7 mg (N = 368)): 0 n (%)
Serious adverse event, Malignant neoplasms: Breast cancer (7 mg (N = 368)): 0 n (%)
Serious adverse event, Malignant neoplasms: Cervix carcinoma stage 0 (7 mg (N = 368)): 0 n (%)
Serious adverse event, Malignant neoplasms: Thyroid cancer (7 mg (N = 368)): 0 n (%)
Serious adverse event, Pancreatic disorders: Lipase increased (7 mg (N = 368)): 2 (0.5%) n (%)
Serious adverse event, Pancreatic disorders: Pancreatitis (7 mg (N = 368)): 0 n (%)
TEAE potentially related to hypersensitivity/skin reactions: Erythema (7 mg (N = 368)): 7 (1.9%) n (%)
TEAE potentially related to hypersensitivity/skin reactions: Pruritus (7 mg (N = 368)): 13 (3.5%) n (%)
TEAE potentially related to hypersensitivity/skin reactions: Pruritus rash (7 mg (N = 368)): 2 (0.5%) n (%)
TEAE potentially related to hypersensitivity/skin reactions: Urticaria (7 mg (N = 368)): 4 (1.1%) n (%)
Polyneuropathy incidence (7 mg group): 0.3%
TEAEs (patients) (7 mg group): 89.1%
TEAEs leading to treatment discontinuation (7 mg group): 9.8%
diarrhea leading to treatment discontinuation (7 mg group): 0.3%
hair thinning/decreased hair density leading to treatment discontinuation (7 mg group): 0.5%
incidence of serious hepatic disorders (ALT >8×ULN and/or ALT >3×ULN with total bilirubin >3 mg/dL and/or any hepatic event with seriousness criterion) (7 mg group): 1.9%
incidence of serious infections (7 mg group): 1.6%
induced abortions among pregnancies during the trial (7 mg group): 5
nausea leading to treatment discontinuation (7 mg group): 0.3%
neutropenia disorders (patients) (7 mg group): 2.2%
patients with mild or moderate peripheral neuropathy with conduction confirmation (7 mg group): four
proportion of patients experiencing any bone marrow TEAE (7 mg group): 9.8%
proportion of patients with TEAEs related to blood pressure increase (7 mg group): 5.4%
serious TEAEs (patients) (7 mg group): 14.1%
incidence of ALT increase (≧1×ULN) (7 mg group): 54.0%
incidence of ALT ≧3×ULN (7 mg group): 6.3%
proportion of patients with TEAEs potentially related to hypersensitivity/skin disorders (7 mg group): 10.3%
neutrophil count decrease in case of neutropenia leading to treatment discontinuation (7 mg group, single patient): 8.7e+08 L⁻¹
neutrophil count after recovery (7 mg group, single patient, three days after treatment discontinuation): 1.34e+09 L⁻¹
patients with increased ALT ≧3×ULN and total bilirubin ≧2×ULN (7 mg group): one
Any event leading to death [1]: 0 n (%)
Any treatment emergent adverse event leading to discontinuation of study drug [1]: 36 (9.8) n (%)
Any treatment emergent serious adverse event [1]: 52 (14.1) n (%)
At least one treatment emergent adverse event [1]: 328 (89.1) n (%)
TEAE Alanine aminotransferase increased (reported as adverse event by the investigator) [1]: 44 (12.0) no. of patients (%)
TEAE Back pain [1]: 39 (10.6) no. of patients (%)
TEAE Diarrhea [1]: 54 (14.7) no. of patients (%)
TEAE Fatigue [1]: 47 (12.8) no. of patients (%)
TEAE Hair thinning/decreased hair density (MedDRA: alopecia) [1]: 38 (10.3) no. of patients (%)
TEAE Headache [1]: 81 (22.0) no. of patients (%)
TEAE Nasopharyngitis [1]: 94 (25.5) no. of patients (%)
TEAE Nausea [1]: 33 (9.0) no. of patients (%)
TEAE Pain in extremity [1]: 26 (7.1) no. of patients (%)
TEAE Urinary tract infection [1]: 27 (7.3) no. of patients (%)
Serious adverse event, Blood disorders: Anemia (14 mg (N = 358)): 0 n (%)
Serious adverse event, Blood disorders: Neutropenia (14 mg (N = 358)): 1 (0.3%) n (%)
Serious adverse event, Blood disorders: Neutrophil count decreased (14 mg (N = 358)): 1 (0.3%) n (%)
Serious adverse event, Hepatic and hepatobiliary disorders: Alanine aminotransferase increased (14 mg (N = 358)): 5 (1.4%) n (%)
Serious adverse event, Hepatic and hepatobiliary disorders: Hepatic enzyme increased (14 mg (N = 358)): 1 (0.3%) n (%)
Serious adverse event, Hepatic and hepatobiliary disorders: Hepatitis toxic (14 mg (N = 358)): 1 (0.3%) n (%)
Serious adverse event, Hepatic and hepatobiliary disorders: Liver injury (14 mg (N = 358)): 0 n (%)
Serious adverse event, Hepatic and hepatobiliary disorders: Transaminases increased (14 mg (N = 358)): 1 (0.3%) n (%)
Serious adverse event, Infections: Appendicitis (14 mg (N = 358)): 0 n (%)
Serious adverse event, Infections: Bacteremia (14 mg (N = 358)): 1 (0.3%) n (%)
Serious adverse event, Infections: Cellulitis (14 mg (N = 358)): 0 n (%)
Serious adverse event, Infections: Cytomegalovirus hepatitis (14 mg (N = 358)): 1 (0.3%) n (%)
Serious adverse event, Infections: Erysipelas (14 mg (N = 358)): 0 n (%)
Serious adverse event, Infections: Gastroenteritis (14 mg (N = 358)): 1 (0.3%) n (%)
Serious adverse event, Infections: Hepatitis C (14 mg (N = 358)): 0 n (%)
Serious adverse event, Infections: Herpes zoster (14 mg (N = 358)): 0 n (%)
Serious adverse event, Infections: Infected cyst (14 mg (N = 358)): 0 n (%)
Serious adverse event, Infections: Lung infection (14 mg (N = 358)): 0 n (%)
Serious adverse event, Infections: Pneumonia (14 mg (N = 358)): 0 n (%)
Serious adverse event, Infections: Pyelonephritis (14 mg (N = 358)): 3 (0.8%) n (%)
Serious adverse event, Infections: Renal abscess (14 mg (N = 358)): 1 (0.3%) n (%)
Serious adverse event, Infections: Urinary tract infection (14 mg (N = 358)): 1 (0.3%) n (%)
Serious adverse event, Infections: Urinary tract infection enterococcal (14 mg (N = 358)): 1 (0.3%) n (%)
Serious adverse event, Malignant neoplasms: Breast cancer (14 mg (N = 358)): 0 n (%)
Serious adverse event, Malignant neoplasms: Cervix carcinoma stage 0 (14 mg (N = 358)): 1 (0.3%) n (%)
Serious adverse event, Malignant neoplasms: Thyroid cancer (14 mg (N = 358)): 0 n (%)
Serious adverse event, Pancreatic disorders: Lipase increased (14 mg (N = 358)): 0 n (%)
Serious adverse event, Pancreatic disorders: Pancreatitis (14 mg (N = 358)): 0 n (%)
TEAE potentially related to hypersensitivity/skin reactions: Erythema (14 mg (N = 358)): 4 (1.1%) n (%)
TEAE potentially related to hypersensitivity/skin reactions: Pruritus (14 mg (N = 358)): 10 (2.8%) n (%)
TEAE potentially related to hypersensitivity/skin reactions: Pruritus rash (14 mg (N = 358)): 1 (0.3%) n (%)
TEAE potentially related to hypersensitivity/skin reactions: Urticaria (14 mg (N = 358)): 3 (0.8%) n (%)
Polyneuropathy incidence (14 mg group): 0.8%
TEAEs (patients) (14 mg group): 90.8%
TEAEs leading to treatment discontinuation (14 mg group): 10.9%
diarrhea leading to treatment discontinuation (14 mg group): 0.3%
hair thinning/decreased hair density leading to treatment discontinuation (14 mg group): 1.4%
incidence of serious hepatic disorders (ALT >8×ULN and/or ALT >3×ULN with total bilirubin >3 mg/dL and/or any hepatic event with seriousness criterion) (14 mg group): 2.5%
incidence of serious infections (14 mg group): 2.5%
induced abortions among pregnancies during the trial (14 mg group): 1
nausea leading to treatment discontinuation (14 mg group): 0.0%
neutropenia disorders (patients) (14 mg group): 4.5%
patients who discontinued treatment due to pruritus (14 mg group): One
patients with mild or moderate peripheral neuropathy with conduction confirmation (14 mg group): six
proportion of patients experiencing any bone marrow TEAE (14 mg group): 7.5%
proportion of patients with TEAEs related to blood pressure increase (14 mg group): 5.0%
serious TEAEs (patients) (14 mg group): 15.9%
spontaneous abortions among pregnancies during the trial (14 mg group): 3
incidence of ALT increase (≧1×ULN) (14 mg group): 57.3%
incidence of ALT ≧3×ULN (14 mg group): 6.7%
proportion of patients with TEAEs potentially related to hypersensitivity/skin disorders (14 mg group): 11.2%
neutrophil count in cases of moderate neutrophil count decrease (serious AEs) (14 mg group, two patients): 9.5e+08 L⁻¹ and 9e+08 L⁻¹
neutrophil count after recovery (14 mg group, two patients, a few days later, treatment continuing): 2.09e+09 L⁻¹ and 3.82e+09 L⁻¹
patients with malignant neoplasms (14 mg group, cervix carcinoma in situ (stage 0) after 1.5 years treatment): one
patients with increased ALT ≧3×ULN and total bilirubin ≧2×ULN (14 mg group): one
Any event leading to death [2]: 0 n (%)
Any treatment emergent adverse event leading to discontinuation of study drug [2]: 39 (10.9) n (%)
Any treatment emergent serious adverse event [2]: 57 (15.9) n (%)
At least one treatment emergent adverse event [2]: 325 (90.8) n (%)
TEAE Alanine aminotransferase increased (reported as adverse event by the investigator) [2]: 51 (14.2) no. of patients (%)
TEAE Back pain [2]: 41 (11.5) no. of patients (%)
TEAE Diarrhea [2]: 64 (17.9) no. of patients (%)
TEAE Fatigue [2]: 52 (14.5) no. of patients (%)
TEAE Hair thinning/decreased hair density (MedDRA: alopecia) [2]: 47 (13.1) no. of patients (%)
TEAE Headache [2]: 67 (18.7) no. of patients (%)
TEAE Nasopharyngitis [2]: 93 (26.0) no. of patients (%)
TEAE Nausea [2]: 49 (13.7) no. of patients (%)
TEAE Pain in extremity [2]: 33 (9.2) no. of patients (%)
TEAE Urinary tract infection [2]: 37 (10.3) no. of patients (%)
serious opportunistic infections (across groups): no serious opportunistic infections observed
increases in amylase and lipase (mean change from baseline) (across the three treatment groups): No increases
deaths (all groups): No deaths occurred
treatment discontinuation due to increased blood pressure (all groups): No patient discontinued treatment
neutrophil count in three cases of moderate neutropenia (on teriflunomide): 9e+08 L⁻¹
adverse event potentially attributed to interstitial lung disease (SMQ terms) (teriflunomide groups): No adverse event
average increase in diastolic blood pressure (teriflunomide groups): < 2 mmHg
average increase in systolic blood pressure (teriflunomide groups): < 4 mmHg
mean reduction from baseline in lymphocyte counts [3]: 3e+08 L⁻¹
mean reduction from baseline in neutrophil counts [3]: 1e+09 L⁻¹
